Results as given in ChEMBL document CHEMBL3885881, “DrugMatrix”.

Species on record: Rattus norvegicus
Experiment: DrugMatrix - Regimen: Daily Repeat
Assay type: toxicity, organism-based, Sprague-Dawley
Design: regimen Daily Repeat, gender Male, age 6-8 weeks
Details: in vivo, po, route oral GAVAGE, […]; for ABSOLUTE BASOPHIL / ABSOLUTE EOSINOPHIL / ABSOLUTE LYMPHOCYTE / ABSOLUTE MONOCYTE / ABSOLUTE SEGMENTED NEUTROPHIL / BASOPHIL / EOSINOPHIL / ERYTHROCYTE COUNT / HEMATOCRIT / HEMOGLOBIN / LEUKOCYTE COUNT / LYMPHOCYTE / MEAN CORPUSCULAR HEMOGLOBIN / MEAN CORPUSCULAR HEMOGLOBIN CONCENTRATION / MEAN CORPUSCULAR VOLUME / MONOCYTE / NEUTROPHIL / NUCLEATED RED BLOOD CELLS / PLATELET COUNT: tissue Blood; for ALANINE AMINOTRANSFERASE / ALBUMIN / ALKALINE PHOSPHATASE / ASPARTATE AMINOTRANSFERASE / BLOOD UREA NITROGEN / CARBON DIOXIDE / CHLORIDE / CHOLESTEROL / CREATINE PHOSPHOKINASE / CREATININE / GLUCOSE / LACTATE DEHYDROGENASE / LIPASE / PHOSPHORUS / POTASSIUM / SODIUM / TOTAL BILIRUBIN / TOTAL PROTEIN / URIC ACID: tissue Plasma
[1] = 0 mg/kg, 72 h, dose level Control, time 3 day
[2] = 0 mg/kg, dose level Control, time 7 day
[3] = 30 mg/kg, 72 h, dose level Low, time 3 day

S=C=Nc1cccc2ccccc12 [1-NAPHTHYLISOTHIOCYANATE]
ABSOLUTE BASOPHIL [1]: 0 CELLS/uL
ABSOLUTE EOSINOPHIL [1]: 47.5 CELLS/uL
ABSOLUTE LYMPHOCYTE [1]: 9600.67 CELLS/uL
ABSOLUTE MONOCYTE [1]: 195.5 CELLS/uL
ABSOLUTE SEGMENTED NEUTROPHIL [1]: 839.67 CELLS/uL
BASOPHIL [1]: 0%
EOSINOPHIL [1]: 0.5%
ERYTHROCYTE COUNT [1]: 5.26 x10E6/uL
HEMATOCRIT [1]: 34.48%
HEMOGLOBIN [1]: 12.77 G/DL
LEUKOCYTE COUNT [1]: 10.68 x10E3/uL
LYMPHOCYTE [1]: 89.67%
MEAN CORPUSCULAR HEMOGLOBIN [1]: 24.3 pg
MEAN CORPUSCULAR HEMOGLOBIN CONCENTRATION [1]: 37.05 G/DL
MEAN CORPUSCULAR VOLUME [1]: 65.62 fL
MONOCYTE [1]: 1.83%
NEUTROPHIL [1]: 8%
NUCLEATED RED BLOOD CELLS [1]: 0.17 /100WBC
PLATELET COUNT [1]: 1038.67 x10E3/uL
ALANINE AMINOTRANSFERASE [1]: 65.17 u/L
ALBUMIN [1]: 4.2 G/DL
ALKALINE PHOSPHATASE [1]: 377.5 u/L
ASPARTATE AMINOTRANSFERASE [1]: 90.5 u/L
BLOOD UREA NITROGEN [1]: 13.5 mg/dL
CARBON DIOXIDE [1]: 31.17 mmol/L
CHLORIDE [1]: 98.33 MEQ/L
CHOLESTEROL [1]: 66.33 mg/dL
CREATINE PHOSPHOKINASE [1]: 478.83 u/L
CREATININE [1]: 0.19 mg/dL
GLUCOSE [1]: 155.17 mg/dL
LACTATE DEHYDROGENASE [1]: 107.5 u/L
LIPASE [1]: 10.33 u/L
PHOSPHORUS [1]: 9.25 mg/dL
POTASSIUM [1]: 5.43 MEQ/L
SODIUM [1]: 142.05 MEQ/L
TOTAL BILIRUBIN [1]: 0.12 mg/dL
TOTAL PROTEIN [1]: 5.95 G/DL
URIC ACID [1]: 0.62 mg/dL
ABSOLUTE BASOPHIL [2]: 0 CELLS/uL
ABSOLUTE EOSINOPHIL [2]: 43.5 CELLS/uL
ABSOLUTE LYMPHOCYTE [2]: 9369.83 CELLS/uL
ABSOLUTE MONOCYTE [2]: 196.17 CELLS/uL
ABSOLUTE SEGMENTED NEUTROPHIL [2]: 723.83 CELLS/uL
BASOPHIL [2]: 0%
EOSINOPHIL [2]: 0.5%
ERYTHROCYTE COUNT [2]: 5.09 x10E6/uL
HEMATOCRIT [2]: 32.42%
HEMOGLOBIN [2]: 13.1 G/DL
LEUKOCYTE COUNT [2]: 10.33 x10E3/uL
LYMPHOCYTE [2]: 90.83%
MEAN CORPUSCULAR HEMOGLOBIN [2]: 25.75 pg
MEAN CORPUSCULAR HEMOGLOBIN CONCENTRATION [2]: 40.43 G/DL
MEAN CORPUSCULAR VOLUME [2]: 63.62 fL
MONOCYTE [2]: 1.67%
NEUTROPHIL [2]: 7%
NUCLEATED RED BLOOD CELLS [2]: 0 /100WBC
PLATELET COUNT [2]: 1106.5 x10E3/uL
ALANINE AMINOTRANSFERASE [2]: 48.67 u/L
ALBUMIN [2]: 4.13 G/DL
ALKALINE PHOSPHATASE [2]: 275.17 u/L
ASPARTATE AMINOTRANSFERASE [2]: 73.17 u/L
BLOOD UREA NITROGEN [2]: 13.17 mg/dL
CARBON DIOXIDE [2]: 27.5 mmol/L
CHLORIDE [2]: 99.67 MEQ/L
CHOLESTEROL [2]: 60.83 mg/dL
CREATINE PHOSPHOKINASE [2]: 213 u/L
CREATININE [2]: 0.2 mg/dL
GLUCOSE [2]: 166.67 mg/dL
LACTATE DEHYDROGENASE [2]: 94.5 u/L
LIPASE [2]: 10.5 u/L
PHOSPHORUS [2]: 9.98 mg/dL
POTASSIUM [2]: 5.3 MEQ/L
SODIUM [2]: 140.77 MEQ/L
TOTAL BILIRUBIN [2]: 0.15 mg/dL
TOTAL PROTEIN [2]: 5.88 G/DL
URIC ACID [2]: 0.82 mg/dL
ABSOLUTE BASOPHIL [3]: 0 CELLS/uL
ABSOLUTE EOSINOPHIL [3]: 54.67 CELLS/uL
ABSOLUTE LYMPHOCYTE [3]: 18655.83 CELLS/uL
ABSOLUTE MONOCYTE [3]: 720.5 CELLS/uL
ABSOLUTE SEGMENTED NEUTROPHIL [3]: 2902.33 CELLS/uL
BASOPHIL [3]: 0%
EOSINOPHIL [3]: 0.33%
ERYTHROCYTE COUNT [3]: 6.41 x10E6/uL
HEMATOCRIT [3]: 39.98%
HEMOGLOBIN [3]: 14.27 G/DL
LEUKOCYTE COUNT [3]: 22.33 x10E3/uL
LYMPHOCYTE [3]: 84.17%
MEAN CORPUSCULAR HEMOGLOBIN [3]: 22.4 pg
MEAN CORPUSCULAR HEMOGLOBIN CONCENTRATION [3]: 35.92 G/DL
MEAN CORPUSCULAR VOLUME [3]: 62.38 fL
MONOCYTE [3]: 3.17%
NEUTROPHIL [3]: 12.33%
NUCLEATED RED BLOOD CELLS [3]: 0 /100WBC
PLATELET COUNT [3]: 844.83 x10E3/uL
ALANINE AMINOTRANSFERASE [3]: 264.83 u/L
ALBUMIN [3]: 3.62 G/DL
ALKALINE PHOSPHATASE [3]: 660.67 u/L
ASPARTATE AMINOTRANSFERASE [3]: 415.67 u/L
BLOOD UREA NITROGEN [3]: 12.67 mg/dL
CARBON DIOXIDE [3]: 28.83 mmol/L
CHLORIDE [3]: 98 MEQ/L
CHOLESTEROL [3]: 282.33 mg/dL
CREATINE PHOSPHOKINASE [3]: 281.83 u/L
CREATININE [3]: 0.18 mg/dL
GLUCOSE [3]: 117.33 mg/dL
LACTATE DEHYDROGENASE [3]: 160.33 u/L
LIPASE [3]: 11.33 u/L
PHOSPHORUS [3]: 9.08 mg/dL
POTASSIUM [3]: 6.45 MEQ/L
SODIUM [3]: 141.7 MEQ/L
TOTAL BILIRUBIN [3]: 3.02 mg/dL
TOTAL PROTEIN [3]: 6.22 G/DL
URIC ACID [3]: 0.85 mg/dL
